Results from ChEMBL document CHEMBL5584301, “Radioactive ADME Demonstrates ARV-110's High Druggability Despite Low Oral Bioavailability” (J Med Chem, 2024).
Activity calls are given as the source filed them. The rule behind the calls is not given here.

How the values were obtained:
[1] = Drug distribution in BALB/c mouse digestive tract at 0.5 mg/kg, po by QWBA analysis; type: ADME, organism-based; settings: in vivo
[2] = Drug recovery in female Sprague-Dawley rat urine at 45 mg/kg, po measured upto 96 hrs by UHPLC analysis; type: ADME, organism-based; settings: read-out: Drug recovery
[3] = Drug recovery in Long-Evans rat eye at 45 mg/kg, po measured for 72 hrs by UHPLC analysis; type: ADME, organism-based; settings: in vivo
[4] = Cmax in BALB/c nude mouse at 0.5 mg/kg, po measured at 48 hrs; type: ADME, organism-based; settings: in vivo
[5] = Cmax in C57BL/6J mouse uveal tract at 0.5 mg/kg, po measured at 168 hrs by QWBA analysis; type: ADME, organism-based; settings: in vivo
[6] = Drug recovery in male Sprague-Dawley rat bile duct at 45 mg/kg, po measured upto 72 hrs by UHPLC analysis; type: ADME, organism-based; settings: read-out: Drug recovery
[7] = Drug recovery in male Sprague-Dawley rat feces at 45 mg/kg, po measured upto 48 hrs by UHPLC analysis; type: ADME, organism-based; settings: faeces, read-out: Drug recovery
[8] = Drug recovery in male Sprague-Dawley rat urine at 45 mg/kg, po measured upto 96 hrs by UHPLC analysis; type: ADME, organism-based; settings: read-out: Drug recovery
[9] = AUC (0 to t ) in C57BL/6J mouse uveal tract at 0.5 mg/kg, po measured at 168 hrs by QWBA analysis; type: ADME, organism-based; settings: in vivo
[10] = Cmax in BALB/c nude mouse at 0.5 mg/kg, po measured at 6 hrs; type: ADME, organism-based; settings: in vivo
[11] = Ratio of drug exposure in tumor to plasma of BALB/c mouse at 0.5 mg/kg, po; type: ADME, organism-based; settings: tumor and plasma
[12] = Drug metabolism in Long-Evans rat at 45 mg/kg, po by UHPLC-HR-MS analysis; type: ADME, organism-based; settings: in vivo
[13] = Ratio of drug exposure in pigmented skin to plasma of C57BL/6J mouse at 0.5 mg/kg, po; type: ADME, organism-based; settings: pigmented skin and plasma
[14] = Drug recovery in female Sprague-Dawley rat feces at 45 mg/kg, po measured upto 48 hrs by UHPLC analysis; type: ADME, organism-based; settings: faeces, read-out: Drug recovery
[15] = Drug distribution in BALB/c mouse kidney at 0.5 mg/kg, po by QWBA analysis; type: ADME, organism-based; settings: in vivo
[16] = Cmax in C57BL/6J mouse eye at 0.5 mg/kg, po measured at 168 hrs by QWBA analysis; type: ADME, organism-based; settings: in vivo
[17] = Cmax in C57BL/6J mouse harderian gland at 0.5 mg/kg, po measured at 48 hrs by QWBA analysis; type: ADME, organism-based; settings: in vivo
[18] = Drug recovery in female Sprague-Dawley rat bile duct at 45 mg/kg, po measured upto 72 hrs by UHPLC analysis; type: ADME, organism-based; settings: read-out: Drug recovery
[19] = Drug distribution in BALB/c mouse harderian gland at 0.5 mg/kg, po by QWBA analysis; type: ADME, organism-based; settings: in vivo
[20] = Drug distribution in BALB/c mouse liver at 0.5 mg/kg, po by QWBA analysis; type: ADME, organism-based; settings: in vivo
[21] = Drug recovery in Sprague-Dawley rat urine at 45 mg/kg, po measured over 168 hrs by UHPLC analysis; type: ADME, organism-based; settings: read-out: Drug recovery
[22] = AUC (0 to t) in Sprague-Dawley rat at 22.5 mg/kg, po with free access to food and water before administration by LSC analysis; type: ADME, organism-based; settings: in vivo
[23] = Oral bioavailability in Sprague-Dawley rat at 45 mg/kg by LSC analysis; type: ADME, organism-based; settings: in vivo
[24] = Half life in Sprague-Dawley rat at 22.5 mg/kg, po with free access to food and water before administration by LSC analysis; type: ADME, organism-based; settings: in vivo
[25] = Drug recovery in Sprague-Dawley rat bile duct at 45 mg/kg, po measured over 72 hrs by UHPLC analysis; type: ADME, organism-based; settings: read-out: Drug recovery
[26] = Oral bioavailability in Sprague-Dawley rat at 22.5 mg/kg with free access to food and water before administration by LSC analysis; type: ADME, organism-based; settings: in vivo
[27] = AUC (0 to infinity) in Sprague-Dawley rat at 22.5 mg/kg, po by LSC analysis; type: ADME, organism-based; settings: in vivo
[28] = AUC (0 to t) in Sprague-Dawley rat at 45 mg/kg, po by LSC analysis; type: ADME, organism-based; settings: in vivo
[29] = Tmax in Sprague-Dawley rat at 45 mg/kg, po by LSC analysis; type: ADME, organism-based; settings: in vivo
[30] = Stability in rat plasma measured after 2 hrs by LC-MS/MS analysis; type: ADME, cell-free
[31] = Half life in Sprague-Dawley rat at 45 mg/kg, po by LSC analysis; type: ADME, organism-based; settings: in vivo
[32] = Stability in phosphate buffer at 1 uM; type: physicochemical
[33] = system: Melanin; assay: Binding affinity to Melanin (unknown origin) assessed as binding ratio at 0.1 microg/ml measured for 2 hrs; settings: dose 0.1 µg/ml
[34] = AUC (0 to t) in Sprague-Dawley rat at 22.5 mg/kg, po by LSC analysis; type: ADME, organism-based; settings: in vivo
[35] = Stability in rat plasma assessed as drug degradation measured after 2 hrs by LC-MS/MS analysis; type: ADME, cell-free
[36] = AUC (0 to infinity) in Sprague-Dawley rat at 22.5 mg/kg, po with free access to food and water before administration by LSC analysis; type: ADME, organism-based; settings: in vivo
[37] = AUC (0 to infinity) in Sprague-Dawley rat at 45 mg/kg, po by LSC analysis; type: ADME, organism-based; settings: in vivo
[38] = Stability in rat plasma assessed as drug hydrolysis measured after 2 hrs by LC-MS/MS analysis; type: ADME, cell-free
[39] = Half life in Sprague-Dawley rat at 22.5 mg/kg, po by LSC analysis; type: ADME, organism-based; settings: in vivo
[40] = Cmax in Sprague-Dawley rat at 22.5 mg/kg, po by LSC analysis; type: ADME, organism-based; settings: in vivo
[41] = Cmax in Sprague-Dawley rat at 22.5 mg/kg, po with free access to food and water before administration by LSC analysis; type: ADME, organism-based; settings: in vivo
[42] = system: Melanin; assay: Binding affinity to Melanin (unknown origin) assessed as binding ratio at 10 microg/ml measured for 2 hrs; settings: dose 10.0 µg/ml
[43] = Tmax in Sprague-Dawley rat at 22.5 mg/kg, po with free access to food and water before administration by LSC analysis; type: ADME, organism-based; settings: in vivo
[44] = Volume of distribution at steady state in Sprague-Dawley rat at 22.5 mg/kg, iv by LSC analysis; type: ADME, organism-based; settings: in vivo
[45] = Oral bioavailability in Sprague-Dawley rat at 22.5 mg/kg by LSC analysis; type: ADME, organism-based; settings: in vivo
[46] = Tmax in Sprague-Dawley rat at 22.5 mg/kg, po by LSC analysis; type: ADME, organism-based; settings: in vivo
[47] = system: DU-145; assay: Antitumor activity against human DU-145 cells xenografted in BALB/c nude mouse assessed as reduction in tumor size at 0.5 mg/kg measured daily for 14 days; type: functional, organism-based; settings: time 14.0 day
[48] = Cmax in Sprague-Dawley rat at 45 mg/kg, po by LSC analysis; type: ADME, organism-based; settings: in vivo
[49] = system: Melanin; assay: Binding affinity to Melanin (unknown origin) assessed as binding ratio at 1 microg/ml measured for 2 hrs; settings: dose 1.0 µg/ml
[50] = Drug recovery in Sprague-Dawley rat feces at 45 mg/kg, po measured over 168 hrs by UHPLC analysis; type: ADME, organism-based; settings: faeces, read-out: Drug recovery

With `N#Cc1ccc(O[C@H]2CC[C@H](NC(=O)c3ccc(N4CCC(CN5CCN(c6cc7c(cc6F)[14C](=O)N(C6CCC(=O)NC6=O)[14C]7=O)CC5)CC4)nn3)CC2)cc1Cl` (stereo not given in full) the Drug uptake [1] was “Active”, the dose excreted at 96 h [2] was 4.25% and the Drug recovery [3] was 55.17%. It also gave a Cmax [4] of 944 ngequiv/g, a Cmax [5] of 9621 ngequiv/g and a dose excreted at 72 h [6] of 4.55%. For the same compound, the dose excreted at 48 h [7] was 92%, the dose excreted at 96 h [8] was 2.51% and the AUCt [9] was 2717032 ng·h/g. The Cmax [10] was 3165 ngequiv/g, the Kp [11] was 3.99 and the Drug metabolism [12] was “Metabolite_Detected”. For the same compound, the Kp [13] was 1.52, the dose excreted at 48 h [14] was 88% and the Drug uptake [15] was “Active”. For the same compound, the Cmax [16] was 3185 ngequiv/g, the Cmax [17] was 2950 ngequiv/g and the dose excreted at 72 h [18] was 4.49%. For the same compound, the Drug uptake [19] was “Active” and the Drug uptake [20] was “Active”.

`N#Cc1ccc(O[C@H]2CC[C@H](NC(=O)c3ccc(N4CCC(CN5CCN(c6cc7c(cc6F)C(=O)N(C6CCC(=O)NC6=O)C7=O)CC5)CC4)nn3)CC2)cc1Cl` (stereo not given in full) [BAVDEGALUTAMIDE] showed a dose excreted at 168 h [21] of 3.38%, an AUCt [22] of 23022 ng·h/mL and an F [23] of 5.62%. It also gave a t1/2 [24] of 14.8 h, a dose excreted at 72 h [25] of 4.54% and an F [26] of 20.97%. The AUC [27] was 11881 ng·h/mL, the AUCt [28] was 12345 ng·h/mL and the Tmax [29] was 5.5 h. For the same compound, the Stability [30] was “Unstable”, the t1/2 [31] was 15.9 h and the Stability [32] was “Stable”. For the same compound, the inhibition [33] was 91%, the AUCt [34] was 11740 ng·h/mL and the Stability [35] was “Stable”. The AUC [36] was 23274 ng·h/mL, the AUC [37] was 12515 ng·h/mL and the Stability [38] was “Stable”. It also gave a t1/2 [39] of 15.4 h, a Cmax [40] of 448 ng/mL and a Cmax [41] of 842 ng/mL. The inhibition [42] was 82.2%, the Tmax [43] was 8.5 h and the Vdss [44] was 2.04 L/kg. The F [45] was 10.75%, the Tmax [46] was 7 h and the Activity [47] was “Active”. For the same compound, the Cmax [48] was 490 ng/mL, the inhibition [49] was 90.1% and the dose excreted at 168 h [50] was 90%.
